Data: patent US8226972B2, “Vaginal delivery of drugs” (FemmePharma Holding Company, Inc., priority 2001, dated 2012)
Structures can show the parent of a compound that is named as a salt. Where two headings read alike, the source gives them in different places.

Columns and labels:
[1] = system: urgency incontinence; test: Example 4: clinical case studies, urgency incontinence / urinary frequency, urgency and nocturia; type: in vivo, human; conditions: person
Method: A person developed urgency incontinence two years after their laparoscopically assisted vaginal hysterectomy. […] However they experienced side effects, such as dry mouth, from the drug. Two weeks later, they started applying oxybutynin (5 mg) into the vagina at bed time, instead of Ditropan XL. […] The patient used vaginal oxybutynin (5 mg) at bed time for 6 months.
A person with a history of chronic pelvic pain and multiple surgical procedures, including pain mapping under conscious sedation and repair of occult bilateral inguinal hernias, developed urinary frequency, urgency and nocturia. Their urine analysis and urine culture were negative for signs of urinary tract infection. Their treatment began with vaginal oxybutynin (5 mg) once daily, at bed time, applied into the vagina.

[2] = system: bladder; test: Example 1: bladder pressure response to intra-arterial Ach after vaginal oxybutynin gel; type: in vivo, rabbit; conditions: for response of the bladder pressure to Ach: high dose (0.5 g Oxybutynin/g gel, 3 g vaginal)
Source text: (§1) 16 mature female New Zealand white rabbits were separated into two groups of eight. The rabbits in Group 1 received a high dose oxybutynin formulations; and the rabbits in Group 2 received a low dose oxybutynin formulation. For the high dose, 3 grams (g) of oxybutynin HCl were suspended in 6 g of gel (yielding a concentration of 0.5 g Oxybutynin/g gel) and 3 g of the formulation were placed in the vagina. For the low dose, 0.3 g of oxybutynin HCl were suspended in 6 g of gel (yielding a concentration of 0.05 g Oxybutynin/g gel), and 3 g of the formulation were placed in the vagina.
(§2) Each rabbit was sedated with an intramuscular injection of ketamine-xylazine ((25 mg ketamine+6 mg xylazine)/kg rabbit) and anesthesia was maintained by isoflurane. After anesthesia, the right external carotid artery was cannulated for blood pressure monitoring. A polyethylene catheter (Intramedic) with an outer diameter of 0.043 inches was inserted through the rabbit's right femoral artery until it reached the lower abdominal aorta (approximately 0.5 cm above the bifurcation of the aorta). A heparizined saline (30 iu/mL) filled polyethylene catheter was used for intra-arterial administration of drugs. To facilitate the delivery of the maximum amount of drugs to the urinary bladder, the rabbit's left femoral artery was ligated.
(§3) The bladder was exposed through a midline incision, and the bladder dome was catheterized with an 8 F catheter for both the monitoring of bladder pressure and for cystometry. The bladder neck-urethra was ligated to prevent micturition or leakage through the urethra. The catheter was connected to an infusion pump (Harvard Apparatus) and a pressure transducer.
(§4) Acetylcholine (Ach), a chemical that causes the bladder muscle (detrusor) to squeeze or contract, was injected through the intra-arterial polyethylene catheter in a volume of 0.31-0.39 mL (i.e., 0.1 mL/kg of rabbit), followed by 0.2 mL of heparinized saline. Change of intravesical pressure following the administration of Ach (10^−6 mol/kg) was monitored by the pressure transducer and recorded on a Grass model 7D polygraph. A 10-minute interval passed between Ach administrations, and three flushes of normal saline, in an amount of 0.1 ml/kg of rabbit, were administered. Three responses to Ach were performed at 10-minute intervals to ensure consistent responses.
(§5) After the third Ach administration, the application of the oxybutynin containing gel was administered to the vagina and the responses to Ach were determined at 15-minute intervals for 2 hours. When the response to Ach was reduced, then the time period was extended to 4 hours. At the end of the experiment, a second cystometric curve was generated.

[3] = system: blood pressure; test: Example 1: blood pressure response to intra-arterial Ach after vaginal oxybutynin gel; type: in vivo, rabbit
Source text: as §1, §2, §4, §5

[4] = system: bladder; test: Example 1: cystometry (bladder capacity, Bladder Compliance); type: in vivo, rabbit; conditions: high dose (0.5 g/g gel) vaginal
Source text: as §1, §3
Then, the rabbit was taken off of the isoflurane and anesthesia was maintained by ketamine-xylazine so that micturition reflexes could be observed during cystometry. […] Bladder capacity and Bladder Compliance were determined. […]
(§6) After the third Ach administration, the application of the oxybutynin containing gel was administered to the vagina and the responses to Ach were determined at 15-minute intervals for 2 hours. […]

[5] = system: bladder; test: Example 2: cystometry at 1.42 mL/minute after vaginal oxybutynin; type: in vivo, rabbit
Source text: as §1, §3
Then, the rabbit was taken off of the isoflurane and anesthesia was maintained by ketamine-xylazine so that micturition reflexes could be observed during cystometry. After 15 minutes, the infusion pump was turned on and at an infusion rate of 1.0 mL/minute, a cystometric curve was generated. The volume at which a micturition reflex was observed was considered to be the functional capacity of the bladder. Bladder capacity and Bladder Compliance were determined. The bladder was then filled to 20 mL.
as §5
(§7) The protocol described in Example 1 was followed in this experiment, with the following changes. The infusion pump was turned on and, at an infusion rate of 1.42 mL/minute, a cystometric curve was generated.

[6] = system: bladder; test: Example 2: bladder contractile response to intra-arterial Ach; type: in vivo, rabbit
Source text: as §1, §4, §5, §7

[7] = system: blood pressure; test: Example 2: vascular response to Ach; type: in vivo, rabbit; conditions: entire 4-hour period
Source text: as §1
Each rabbit was sedated with an intramuscular injection of ketamine-xylazine ((25 mg ketamine+6 mg xylazine)/kg rabbit) and anesthesia was maintained by isoflurane. […]
Acetylcholine (Ach), a chemical that causes the bladder muscle (detrusor) to squeeze or contract, was injected through the intra-arterial polyethylene catheter in a volume of 0.31-0.39 mL (i.e., 0.1 mL/kg of rabbit), followed by 0.2 mL of heparinized saline. Change of intravesical pressure following the administration of Ach (10^−6 mol/kg) was monitored by the pressure transducer and recorded on a Grass model 7D polygraph. […]
as §6

[8] = system: bladder; test: Example 3: cystometry after vaginal or oral oxybutynin; type: in vivo, rabbit; conditions: for micturition pressure: four hours after administration
Method: (§8) 30 mature female New Zealand white rabbits (˜4 kg) were separated into five groups of six rabbits each. Intra arterial administration of Ach was used as a model for hyperreflexia. The effects on intra arterial stimulated contraction were compared with effects on micturition pressure generation.
as §2, with “Central Mutual” for “cm”
as §3, with “tranducer. The right carotid artery was cannulated for monitoring blood pressure. Bladder pressure and blood pressure were recorded on a Grass model 7D Polygraph, and were simultaneously digitized using a Polyview A/D digital analytical system.” for “transducer.”
(§9) Cystometry was performed at 1.4 mL/min until a micturition contraction or a volume of 80 mL was obtained. After the first cystometry, Ach (10^−6 mol/kg) was injected through the intra-arterial polyethylene catheter in a volume of 0.1 ml/kg followed by three washes of 0.2 ml of heparinized saline. The blood pressure and bladder pressure responses were recorded and digitized.
(§10) After three consistent Ach tests, (i.e. responses within 20% of each other) the rabbits in the control group (Group 1) received a vaginal administration of 3 mL of gel (no oxybutynin); the rabbits in the high dose group (Group 2) received a vaginal administration of 1.5 g of oxybutynin suspended in 3 mL of gel; the rabbits in the intermediate dose group (Group 3) received 0.5 g of oxybutynin suspended in 3 mL of gel; the rabbits in the low dose group (Group 4) received a vaginal administration of 0.15 g of oxybutynin suspended in 3 mL of gel; and the rabbits in the oral dose group (Group 5) received 0.5 g of an oral preparation of oxybutynin dissolved in 3 mL of saline.
(§11) Ach was administered at 10 minute intervals for two hours, and then a second cystometry was performed. Ach administration continued at 10 minute intervals for a second two hour period, and then a final cystometry performed.
(§12) Statistical significance was determined using analysis of variance followed by Bonferroni test for individual differences. A p<0.05 was required for significance.

[9] = system: bladder; test: Example 3: bladder response to intra-arterial Ach (model for hyperreflexia); type: in vivo, rabbit
Method: as §8
as §2, with “Central Mutual” for “cm”
as §3, with “tranducer. The right carotid artery was cannulated for monitoring blood pressure. Bladder pressure and blood pressure were recorded on a Grass model 7D Polygraph, and were simultaneously digitized using a Polyview A/D digital analytical system.” for “transducer.”
as §9, §10, §11, §12

[10] = system: blood pressure; test: Example 3: vascular (blood pressure) response to Ach; type: in vivo, rabbit
Method: as §8
as §2, with “Central Mutual” for “cm”
as §3, with “tranducer. The right carotid artery was cannulated for monitoring blood pressure. Bladder pressure and blood pressure were recorded on a Grass model 7D Polygraph, and were simultaneously digitized using a Polyview A/D digital analytical system.” for “transducer.”
Cystometry was performed at 1.4 mL/min until a micturition contraction or a volume of 80 mL was obtained. […] The blood pressure and bladder pressure responses were recorded and digitized. […]
Statistical significance was determined using analysis of variance followed by Bonferroni test for individual differences. […]

[11] = system: urge incontinence; conditions: cited from earlier work
[12] = solid device containing oxybutynin inserted in the vagina of a rabbit (Schröder); cited from earlier work
[13] = low dose (0.05 g/g gel) vaginal, two out of three experiments
[14] = vaginally delivered high dose, overall
[15] = 5 mg into the vagina at bed time
[16] = 5 mg into the vagina twice daily
[17] = vaginal 5 mg at bed time for 6 months
[18] = oxybutynin solution delivered by catheter (Saito)

Cc1ccc(O)c([C@H](CCN(C(C)C)C(C)C)c2ccccc2)c1 [DETROL®, tolterodine tartrate]
improvement of urgency incontinence ([1]; 2 mg orally twice a day): slight improvement

CCN(CC)CC#CCOC(=O)C(O)(c1ccccc1)C1CCCCC1 (stereo not drawn) [oxybutynin]
response of the bladder pressure to Ach ([2]; 15 minutes after administration): completely lost | response of the bladder pressure to Ach ([2]; 4 hours after administration): did not increase | reduction of the response of the bladder pressure to Ach ([2]; low dose (0.05 g/g gel) vaginal, one experiment): about 50% | effect on bladder pressure response to Ach [2, 13]: no significant effect | contractile response of the bladder to Ach [2, 14]: significantly reduced | response of the blood pressure to Ach ([3]; high dose (0.5 g/g gel) vaginal, 15 minutes after administration): clear response | response of the blood pressure to Ach ([3]; high dose (0.5 g/g gel) vaginal, 4 hours after administration): decreased | effect on blood pressure response to Ach [3, 13]: no significant effect | response of the blood pressure to Ach [3, 14]: without having any significant effects | Bladder Compliance [4]: significant decrease | bladder volume at micturition [4]: increase | Bladder Compliance ([5]; high dose vaginal): significant decrease | intravesical pressure during cystometry ([5]; high dose vaginal): decreased | intravesical volume at micturition (no micturition reflex up to this volume; cystometry stopped) ([5]; high dose vaginal, before approximately 20 mL): > 80 mL | micturition reflex ([5]; high dose vaginal, up to bladder volume of 80 mL): inhibited | Bladder Compliance ([5]; low dose vaginal): decrease | intravesical pressure during cystometry (at micturition) ([5]; low dose vaginal, after administration (about 15 before), FIG. 4): about 8 cm H2O | pressure at which micturition occurred ([5]; low dose vaginal, after administration (about 16 before), FIG. 3): about 8 cm H2O | magnitude of the micturition reflex (micturition pressure) ([5]; low dose vaginal, after administration (about 22 before)): about 10 cm H2O | intravesical volume at micturition ([5]; low dose vaginal, after treatment, approximately the same as before): about 22 mL | contractile response to intra-arterial Ach ([6]; high dose vaginal, after 4 hours): not restored | contractile response to intra-arterial Ach ([6]; high dose vaginal, at 15 minutes): complete inhibition | contractile response to intra-arterial Ach ([6]; low dose vaginal, at 45 minutes): decreased response | intravesical pressure response to intra-arterial Ach ([6]; low dose vaginal, from 45 minutes for the remaining 2.25 hours): about 7 cm H2O | vascular response to Ach ([7]; high dose vaginal): no effect | vascular response to Ach ([7]; low dose vaginal): no effect | bladder volume at micturition ([8]; all of the formulations (vaginal low, intermediate, high; oral)): significant increase | Bladder Compliance ([8]; all oxybutynin-treated groups): decreased | decrease of Bladder Compliance ([8]; high dose vaginal): 7.3 fold | micturition reflex ([8]; highest dose): virtually eliminated | decrease of Bladder Compliance ([8]; intermediate dose vaginal): 4.5 fold | decrease of Bladder Compliance ([8]; low dose vaginal): 3.3 fold | intravesical pressure immediately prior to micturition ([8]; oral (0.5 g in 3 mL saline)): significantly reduced | inhibitory effects on the micturition reflex, oral compared with the vaginal route ([8]; oral preparation vs intermediate dose vaginal): significantly greater inhibitory effects | effect on Bladder Compliance and bladder capacity, oral compared with the vaginal route ([8]; oral preparation vs intermediate dose vaginal (equal effects on Ach stimulated contraction)): smaller effect | micturition pressure ([8]; oral): significantly reduced | intravesical pressure immediately prior to micturition ([8]; vaginal high dose (1.5 g in 3 mL gel)): significantly reduced | micturition pressure ([8]; vaginal high dose): significantly reduced | intravesical pressure immediately prior to micturition ([8]; vaginal intermediate dose (0.5 g in 3 mL gel)): significantly reduced | micturition pressure ([8]; vaginal intermediate dose): not significantly affected | intravesical pressure immediately prior to micturition ([8]; vaginal low dose (0.15 g in 3 mL gel)): no significant effect | micturition pressure ([8]; vaginal low dose): not significantly affected | response to Ach compared to the control response ([9]; all preparations of oxybutynin): statistically significant decrease | onset of action ([9]; high dose vaginal): very fast | response to Ach ([9]; high dose vaginal, at 30 minutes, remained active throughout the 4 hour study): completely inhibited | response to acetylcholine ([9]; highest dose): completely eliminated | response to Ach ([9]; intermediate vaginal dose, reached over 90 minutes, remaining for the rest of the experiment): approximately 40 % of control | response to Ach ([9]; low vaginal dose, reached over 90 minutes, remaining for the rest of the experiment): approximately 40 % of control | response to Ach ([9]; oral, reached over 90 minutes, remaining for the rest of the experiment): approximately 40 % of control | vascular response to Ach ([10]; any dose, vaginally delivered, entire 4 hour period): no effect | effects on the cardiovascular system ([10]; highest dose): only minor effects | blood pressure response to Ach ([10]; oral): inhibitory effects | side effects [1, 15]: did not experience any noticeable side effects | urgency symptoms [1, 15]: improved remarkably | improvement of symptoms [1, 16]: remarkable improvement | side effects [1, 16]: no significant side effects | control of symptoms of urgency incontinence [1, 17]: remained effective | side effects [1, 17]: did not suffer from any side effects | improvement of urinary frequency, urgency and nocturia ([1]; vaginal 5 mg once daily at bed time): significant improvement | side effects ([11]; intravesical administration (Brendler)): no side effects were observed | patients who reported improvement and became totally continent ([11]; intravesical administration, eleven patients with persistent urge incontinence (Brendler)): Ten out of eleven | effectiveness in urinary incontinence [11, 18]: effective | side effects [11, 18]: did not experience side effects | systemic levels of oxybutynin [12]: effective at reducing the systemic levels

CCN(CC)CC#CCOC(=O)C(O)(c1ccccc1)C1CCCCC1 (stereo not drawn) [free base form, oxybutynin]
response to Ach ([6]; high dose of the free base form): no effect
